Results reported in publication PMC6727418, “Cyanidin-3-rutinoside acts as a natural inhibitor of intestinal lipid digestion and absorption” (BMC Complementary and Alternative Medicine, 2019).

Columns and labels:
[1] = molecular target: T1, porcine pancreatic cholesterol esterase (Sus scrofa, UniProt A0A286ZKB1); assay: colorimetric p-NPB hydrolysis assay, percent inhibition at […]; assay type: biochemical; conditions: read-out: % inhibition at 1 mM
T1 construct: gene CEL
T1 sequence (A0A286ZKB1 96-682): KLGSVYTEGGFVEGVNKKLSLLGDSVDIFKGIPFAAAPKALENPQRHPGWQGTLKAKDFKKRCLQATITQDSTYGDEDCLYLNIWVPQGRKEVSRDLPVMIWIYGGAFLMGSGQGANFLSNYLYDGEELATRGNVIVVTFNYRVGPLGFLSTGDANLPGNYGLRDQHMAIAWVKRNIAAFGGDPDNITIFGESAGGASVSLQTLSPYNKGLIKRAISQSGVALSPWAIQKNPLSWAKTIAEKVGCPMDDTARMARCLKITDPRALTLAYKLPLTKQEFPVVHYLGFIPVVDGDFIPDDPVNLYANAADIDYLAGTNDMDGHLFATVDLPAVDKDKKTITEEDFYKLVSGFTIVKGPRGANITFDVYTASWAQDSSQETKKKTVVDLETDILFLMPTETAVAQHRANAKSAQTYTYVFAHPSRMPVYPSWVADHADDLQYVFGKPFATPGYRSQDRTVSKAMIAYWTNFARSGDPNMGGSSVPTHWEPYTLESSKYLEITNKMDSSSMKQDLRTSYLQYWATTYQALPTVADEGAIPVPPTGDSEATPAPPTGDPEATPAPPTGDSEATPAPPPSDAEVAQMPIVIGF

[2] = molecular target: T2, Porcine pancreatic lipase (Sus scrofa, UniProt P00591); assay: fluorometric 4-MUO hydrolysis assay; Lineweaver-Burk kinetics (Ki […], Ki'[…]); assay type: biochemical
T2 construct: gene PNLIP
T2 sequence (P00591 1-450): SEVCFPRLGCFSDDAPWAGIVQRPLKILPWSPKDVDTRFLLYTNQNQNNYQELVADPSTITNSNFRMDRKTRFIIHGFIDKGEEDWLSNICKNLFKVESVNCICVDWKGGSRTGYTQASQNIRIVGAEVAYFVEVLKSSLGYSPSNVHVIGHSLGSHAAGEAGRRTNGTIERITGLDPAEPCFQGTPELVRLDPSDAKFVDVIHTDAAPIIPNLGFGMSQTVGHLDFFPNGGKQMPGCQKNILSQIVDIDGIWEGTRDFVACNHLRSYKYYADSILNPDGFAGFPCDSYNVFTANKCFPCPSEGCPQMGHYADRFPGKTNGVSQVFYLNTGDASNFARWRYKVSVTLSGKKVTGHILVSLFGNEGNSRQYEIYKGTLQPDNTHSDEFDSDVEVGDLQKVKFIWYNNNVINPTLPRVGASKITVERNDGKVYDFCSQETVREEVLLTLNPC

Row | SMILES | inhibition at 1000 µM [1] [%] | IC50 [2] [µM]
1 | O=C(O)c1cc(O)c(O)c(O)c1 [gallic acid] | ~39 | –
2 | C[C@@H]1O[C@@H](OC[C@H]2O[C@@H](Oc3cc4c(O)cc(O)cc4[o+]c3-c3ccc(O)c(O)c3)[C@H](O)[C@@H](O)[C@@H]2O)[C@H](O)[C@H](O)[C@H]1O [C3R, Cyanidin-3-rutinoside] | – | 59.4 ± 1.41
